What is called ED50 is the dose at which the effect has come halfway, by size or by number of responders.

The record followed here is patent US4740518A, “4H-benzo(4,5)cyclohepta(1,2-B)thiophene derivatives” (Sandoz Ltd., priority 1983, dated 1988).

A short description of experiment [1]: Arthritis pain test in the rat (Test C). The conditions noted are these: for ED50: Rattus norvegicus, read-out: Arthritis pain ED50. The experiment is classed as in vivo, male rats (OFA). The procedure:
For this test male rats (OFA) of 110-120 g are treated with 0.1 ml of a Mycobacterium butyricum suspension in paraffin oil (0.6 mg Mycobact./0.1 ml oil) injected i.c. into the tail root. Marked arthritis in the hind-paws develops ca. 12 days after treatment. 30 mins. before administration of test-substance, control measurement is performed by flexing the foot joint of the right or left hind-paw using a Statham transducer until vocalisation occurs. […] Test substance is administered orally and the flexion procedure repeated 1,3 and 5 hours subsequently. The pressure at which vocalisation occurs is noted, the value recorded for each rat at each interval being the average value of three successive measurements. Animals in which the vocalisation threshold is doubled with respect to the control measurement are considered to be protected. The ED50 estimated for each post-treatment time according to the Probit method is taken as the dosage at which 50% of animals are protected. Compounds of the invention, e.g. compounds of formula I, are active in this test at dosages of from 3.2 to 100 mg/kg.

Experiment [2] in a line: Yeast-induced fever test in the rat (Test B). The experiment is classed as in vivo, male rats (Sprague-Dawley). The conditions noted are these: for ED50: Rattus norvegicus, read-out: Yeast fever ED50. The procedure: For this test male rats (Sprague-Dawley) of 130-180 g are fasted overnight. Body temperature is measured the following morning using a thermistor rectal probe connected to a telethermometer. 1 ml/100 g body weight of a 15% suspension of dried baker's yeast in saline is then injected s.c.. Body temperature is measured 2 hours later and this value taken as the initial temperature. 6 hours after yeast injection the test animals receive an oral dosage of the test substance suspended in 0.5% tragacanth or tragacanth alone (control). Body temperature is again measured after a further 2 hours.
Increase in temperature for each rat is calculated and expressed as a % of average increase determined in the control group (ca. 2.3° C. above normal). The ED50, estimated by regression analysis, is taken as the dosage at which increase in rectal temperature is 50% of that in the control group. Compounds of the invention, e.g. compounds of formula I, are active in this test at dosages of from 15 to 60 mg/kg.

Experiment [3] in a line: Adjuvant arthritis test in the rat (Test A). The experiment is classed as in vivo. The following applies: for ED50: Rattus norvegicus. The procedure: For this test adjuvant arthritis is induced according to the method of Pearson and Wood, "Arthr. Rheum."2, 440 (1959). Compounds of the invention, e.g. compounds of formula I, are active in this test against developing and established arthritis at dosages of from 5 to 30 mg/kg/day.

As to `CC(=O)Oc1ccccc1C(=O)O` [B, acetylsalicyclic acid, reference compound], the ED50 came out at 90 mg/kg in experiment [1] (po); 161 mg/kg in experiment [2] (po, 2 h); 140 mg/kg in experiment [3] (read-out: Developing arthritis ED50); 240 mg/kg in experiment [3] (read-out: Established arthritis ED50).

In the case of `COC1=Cc2ccccc2C(=CC(=O)O)c2ccsc21` [A, [10-methoxy-4H-benzo[4,5]cyclohepta[1,2-b]thiophen-4-ylidene]-acetic acid], the ED50 in experiment [1] (Test C, oral, 50% of animals protected, compound A as cis (Z) isomer) turned out to be 7 mg/kg; in experiment [2] (Test B, oral, temperature 2 h after dosing, compound A as cis (Z) isomer), 22 mg/kg; in experiment [3] (Test A, developing arthritis, compound A as cis/trans (Z,E) isomer mixture, read-out: Developing arthritis ED50), 15 mg/kg; in experiment [3] (Test A, developing arthritis, using cis (Z) isomer, read-out: Developing arthritis ED50) it was 8 mg/kg; in experiment [3] (Test A, established arthritis, compound A as cis/trans (Z,E) isomer mixture, read-out: Established arthritis ED50), 15 mg/kg; in experiment [3] (Test A, established arthritis, using cis (Z) isomer, read-out: Established arthritis ED50), 16 mg/kg. Besides, in experiment [1] (cis-isomer), the “indicated daily dosage relative to acetylsalicylic acid, analgesic therapy” value is recorded as 1/12. In addition, in experiment [2] (cis-isomer), the “indicated daily dosage relative to acetylsalicylic acid, anti-pyretic therapy” value is recorded as 1/7. For the same compound, the “indicated daily dosage relative to acetylsalicylic acid, anti-inflammatory therapy” value in experiment [3] (pure cis-isomer) is 1/15.
